One experiment has as its target Ba/F3 ERBB2 YVMA (Homo sapiens, UniProt P04626, DUP772-775, cells depend on it). Put plainly: Cell viability assay (CellTiter Glo) in Ba/F3 cells engineered to express ERBB2 YVMA. Type of experiment: cell-based, mouse. To be noted: Ba/F3 cells expressing human ERBB2 YVMA mutant, 72 hours, % viability, read-out: Ba/F3 ERBB2 YVMA IC50. The method in brief:
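IL-3-independent mouse Ba/F3 line stably transduced with human ERBB2 YVMA, seeded at 3000 cells/well, exposed to serially diluted compound (≤0.1% DMSO) for 72 h at 37° C. ATP read by CellTiter Glo luminescence, normalised to DMSO and media-only controls; sigmoidal nonlinear regression fit.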

Experiment [1] addresses T1, phosphorylated ERBB2 (pERBB2) (Homo sapiens, UniProt P04626).
T1 construct: endogenous in cells; host or cells: BT-474
Put plainly: Detection of phosphorylated ERBB2 (pERBB2) by ELISA in BT-474 cells. To be noted: four hour incubation with compound. The class given is cell-based. The method in brief:
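BT-474 cells treated 4 h at 37 °C, 5% CO2 with four-fold dilutions (10 μM to 0.01 nM final). Lysates analysed by ELISA for pERBB2, TMB read at OD 450 nm. % relative activity normalised to no-cell (low) and 0.1% DMSO-treated (high) controls.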
Background: ELISA stands for enzyme-linked immunosorbent assay.

In experiment [2] the target is T2, phosphorylated EGFR (pEGFR) (Homo sapiens, UniProt P00533).
T2 construct: performed to measure phosphorylated EGFR levels using A431 cells; endogenous in cells; host or cells: A431
Put plainly: Detection of phosphorylated EGFR (pEGFR) in EGF-stimulated A431 cells (AlphaLISA). The class given is cell-based. To be noted: A431 cells (10% FBS), 4 hours incubation, EGF 30 ng/mL for 10 minutes. The method in brief: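 Cells in 10% FBS treated with compound 4 h at 37° C., then stimulated 10 min with 30 ng/mL EGF, lysed, and pEGFR measured by AlphaLISA. Inhibition normalized to DMSO and staurosporine controls; IC50 from four-parameter logistic fit.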
In general terms: Bead proximity is the source of the signal in Alpha formats.

The record followed here is patent US20250136595A1, “ACYLATED HETEROCYCLIC QUINAZOLINE DERIVATIVES AS INHIBITORS OF ERBB2” (Enliven Inc., priority 2022, published 2025).

Molecules are shown by their SMILES. Bounds are passed on as bounds.

By IC50 is commonly meant the concentration needed to halve the response being measured.

T2 sequence (P00533 25-1210): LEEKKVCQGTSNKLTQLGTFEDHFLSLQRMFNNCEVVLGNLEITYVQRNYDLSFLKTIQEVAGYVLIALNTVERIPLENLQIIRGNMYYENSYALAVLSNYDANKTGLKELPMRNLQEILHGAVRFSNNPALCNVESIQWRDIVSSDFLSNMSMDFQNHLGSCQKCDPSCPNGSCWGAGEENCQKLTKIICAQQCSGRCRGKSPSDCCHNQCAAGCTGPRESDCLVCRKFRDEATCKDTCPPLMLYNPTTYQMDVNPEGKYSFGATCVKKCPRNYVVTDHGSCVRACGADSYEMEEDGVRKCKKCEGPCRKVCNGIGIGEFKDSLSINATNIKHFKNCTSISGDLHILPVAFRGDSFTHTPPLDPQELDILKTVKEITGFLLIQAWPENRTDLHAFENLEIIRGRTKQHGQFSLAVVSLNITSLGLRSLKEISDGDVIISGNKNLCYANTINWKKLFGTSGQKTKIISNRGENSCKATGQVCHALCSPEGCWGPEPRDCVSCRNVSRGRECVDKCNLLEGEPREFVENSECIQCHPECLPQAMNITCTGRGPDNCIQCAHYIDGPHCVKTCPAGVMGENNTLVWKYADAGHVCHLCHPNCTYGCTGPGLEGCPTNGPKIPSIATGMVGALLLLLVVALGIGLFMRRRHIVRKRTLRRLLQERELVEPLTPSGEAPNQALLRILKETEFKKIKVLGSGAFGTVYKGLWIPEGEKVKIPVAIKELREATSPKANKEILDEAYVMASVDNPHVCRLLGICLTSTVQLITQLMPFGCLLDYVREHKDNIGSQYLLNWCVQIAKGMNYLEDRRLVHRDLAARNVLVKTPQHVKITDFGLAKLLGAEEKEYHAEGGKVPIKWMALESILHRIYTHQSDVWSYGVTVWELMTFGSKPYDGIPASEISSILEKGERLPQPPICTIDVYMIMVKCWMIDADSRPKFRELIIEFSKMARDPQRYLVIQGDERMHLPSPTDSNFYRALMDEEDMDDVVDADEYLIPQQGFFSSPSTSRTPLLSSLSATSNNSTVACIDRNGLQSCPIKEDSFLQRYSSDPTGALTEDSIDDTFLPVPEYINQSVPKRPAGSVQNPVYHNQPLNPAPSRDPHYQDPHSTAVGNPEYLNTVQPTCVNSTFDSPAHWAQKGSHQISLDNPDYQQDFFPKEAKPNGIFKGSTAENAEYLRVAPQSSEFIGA
Sequence of Ba/F3 ERBB2 YVMA (P04626 with tags, fused parts or gaps DUP772-775): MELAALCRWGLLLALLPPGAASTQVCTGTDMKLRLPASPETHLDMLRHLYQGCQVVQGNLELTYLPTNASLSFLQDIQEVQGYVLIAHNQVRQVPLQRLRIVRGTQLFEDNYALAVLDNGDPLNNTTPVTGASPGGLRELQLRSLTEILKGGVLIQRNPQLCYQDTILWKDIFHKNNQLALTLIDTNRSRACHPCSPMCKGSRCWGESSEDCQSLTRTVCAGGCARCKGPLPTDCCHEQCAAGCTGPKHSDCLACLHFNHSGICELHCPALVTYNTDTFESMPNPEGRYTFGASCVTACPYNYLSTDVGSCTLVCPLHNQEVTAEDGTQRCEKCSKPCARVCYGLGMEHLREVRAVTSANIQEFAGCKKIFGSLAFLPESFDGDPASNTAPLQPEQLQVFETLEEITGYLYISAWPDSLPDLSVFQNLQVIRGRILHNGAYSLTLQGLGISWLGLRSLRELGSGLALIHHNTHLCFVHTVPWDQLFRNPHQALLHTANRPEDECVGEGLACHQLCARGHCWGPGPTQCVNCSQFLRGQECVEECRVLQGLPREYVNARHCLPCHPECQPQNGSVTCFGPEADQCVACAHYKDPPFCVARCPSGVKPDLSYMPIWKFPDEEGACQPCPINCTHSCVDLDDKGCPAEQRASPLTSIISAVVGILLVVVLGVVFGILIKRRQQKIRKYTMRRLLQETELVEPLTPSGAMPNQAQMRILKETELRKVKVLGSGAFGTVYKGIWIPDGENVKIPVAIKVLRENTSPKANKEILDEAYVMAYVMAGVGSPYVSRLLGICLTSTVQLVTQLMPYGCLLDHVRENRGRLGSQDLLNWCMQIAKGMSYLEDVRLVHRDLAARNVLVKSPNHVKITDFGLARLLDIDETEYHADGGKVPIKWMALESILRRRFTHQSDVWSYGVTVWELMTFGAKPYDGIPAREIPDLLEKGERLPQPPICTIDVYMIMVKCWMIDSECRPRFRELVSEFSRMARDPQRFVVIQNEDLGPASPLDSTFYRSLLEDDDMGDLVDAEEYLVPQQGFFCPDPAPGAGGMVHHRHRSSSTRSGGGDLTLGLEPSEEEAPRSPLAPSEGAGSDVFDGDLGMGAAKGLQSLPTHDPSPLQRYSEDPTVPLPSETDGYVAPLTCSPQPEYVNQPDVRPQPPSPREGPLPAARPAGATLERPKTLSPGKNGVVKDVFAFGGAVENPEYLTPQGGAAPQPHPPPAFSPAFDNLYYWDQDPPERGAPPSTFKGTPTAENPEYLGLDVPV
T1 sequence (P04626 23-1255): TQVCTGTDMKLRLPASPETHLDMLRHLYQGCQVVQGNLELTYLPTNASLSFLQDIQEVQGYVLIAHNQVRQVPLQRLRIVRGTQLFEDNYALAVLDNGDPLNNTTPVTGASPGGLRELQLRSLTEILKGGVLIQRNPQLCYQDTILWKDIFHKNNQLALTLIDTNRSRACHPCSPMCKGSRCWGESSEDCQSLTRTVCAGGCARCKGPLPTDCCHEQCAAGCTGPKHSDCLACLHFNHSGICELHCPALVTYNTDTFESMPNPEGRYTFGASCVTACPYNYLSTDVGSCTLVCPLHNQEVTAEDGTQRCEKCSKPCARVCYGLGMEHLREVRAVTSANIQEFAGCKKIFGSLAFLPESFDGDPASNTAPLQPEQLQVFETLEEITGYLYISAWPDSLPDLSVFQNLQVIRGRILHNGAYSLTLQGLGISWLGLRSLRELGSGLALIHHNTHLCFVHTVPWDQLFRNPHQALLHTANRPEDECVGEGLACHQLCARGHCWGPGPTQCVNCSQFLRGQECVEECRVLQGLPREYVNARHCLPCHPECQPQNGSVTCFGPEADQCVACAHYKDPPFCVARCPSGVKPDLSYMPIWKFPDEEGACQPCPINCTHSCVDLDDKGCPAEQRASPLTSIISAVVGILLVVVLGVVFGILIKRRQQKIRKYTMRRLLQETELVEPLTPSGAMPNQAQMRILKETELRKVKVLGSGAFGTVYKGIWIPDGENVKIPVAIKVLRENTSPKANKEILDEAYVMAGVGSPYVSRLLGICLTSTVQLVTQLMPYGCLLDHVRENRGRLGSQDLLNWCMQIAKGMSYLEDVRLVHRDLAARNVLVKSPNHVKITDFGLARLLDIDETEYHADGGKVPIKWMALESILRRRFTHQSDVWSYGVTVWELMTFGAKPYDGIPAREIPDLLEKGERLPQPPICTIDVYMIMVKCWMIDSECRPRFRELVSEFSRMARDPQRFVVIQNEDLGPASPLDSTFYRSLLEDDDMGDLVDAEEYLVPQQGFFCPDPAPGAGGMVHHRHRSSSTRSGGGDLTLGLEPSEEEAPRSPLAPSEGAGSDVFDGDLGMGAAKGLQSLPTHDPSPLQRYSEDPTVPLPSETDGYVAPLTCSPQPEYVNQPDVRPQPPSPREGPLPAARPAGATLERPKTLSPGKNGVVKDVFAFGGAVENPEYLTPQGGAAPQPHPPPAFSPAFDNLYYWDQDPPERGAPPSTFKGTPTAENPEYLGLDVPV

In the case of `CC#CC(=O)N1CCN(c2cc3c(Nc4ccc(Oc5ccc6c(c5)ncn6C)c(C)c4)ncnc3cn2)C[C@H]1C` [Compound 71, 1-[(2R)-2-methyl-4-[4-({3-methyl-4-[(1-methyl-1,3-benzodiazol-5-yl)oxy]phenyl}amino)pyrido[3,4-d]pyrimidin-6-yl]piperazin-1-yl]but-2-yn-1-one], the GI50 on Ba/F3 ERBB2 YVMA came to 20.4 nM. Besides, the values for the IC50 in experiment [1] and in experiment [2] were 22 nM and 1020 nM, respectively.
As for `CC#CC(=O)N1CCN(c2ncc3ncnc(Nc4ccc(Oc5ccc6c(c5)ncn6C)c(C)c4)c3n2)C[C@H]1C` [Compound 72, (R)-1-(2-methyl-4-(8-((3-methyl-4-((1-methyl-1H-benzo[d]imidazol-5-yl)oxy)phenyl)amino)pyrimido[5,4-d]pyrimidin-2-yl)piperazin-1-yl) but-2-yn-1-one], the GI50 at Ba/F3 ERBB2 YVMA was 10.1 nM. Also, the IC50 in experiment [1] was found to be 67.9 nM; in experiment [2], 2680 nM.
As to `C=CC(=O)N1CC2CCC(C1)N2c1ccc2ncnc(Nc3ccc(Oc4ccc5c(c4)ncn5C)c(C)c3)c2n1` [Compound 73, 1-{8-[4-({3-methyl-4-[(1-methyl-1,3-benzodiazol-5-yl)oxy]phenyl}amino)pyrido[3,2-d]pyrimidin-6-yl]-3,8-diazabicyclo[3.2.1]octan-3-yl}prop-2-en-1-one], at Ba/F3 ERBB2 YVMA, the GI50 turned out to be 29 nM. Besides, the figures for the IC50 in experiment [1] and in experiment [2] were 32.5 nM and 281 nM, respectively.
As for `C=CC(=O)N1C2CCC1CN(c1ccc3ncnc(Nc4ccc(Oc5ccc6c(c5)ncn6C)c(C)c4)c3n1)C2` [Compound 74, 1-(3-(4-((3-methyl-4-((1-methyl-1H-benzo[d]imidazol-5-yl)oxy)phenyl)amino)pyrido[3,2-d]pyrimidin-6-yl)-3,8-diazabicyclo[3.2.1]octan-8-yl)prop-2-en-1-one], on Ba/F3 ERBB2 YVMA, the GI50 worked out at 27.9 nM. In addition, the IC50 in experiment [1] is 37.2 nM; in experiment [2] it was 1030 nM.
Turning to `CC#CC(=O)N1CC2CCC(C1)N2c1ccc2ncnc(Nc3ccc(Oc4ccc5c(c4)ncn5C)c(C)c3)c2n1` [Compound 75, 1-(8-(4-((3-methyl-4-((1-methyl-1H-benzo[d]imidazol-5-yl)oxy)phenyl)amino)pyrido[3,2-d]pyrimidin-6-yl)-3,8-diazabicyclo[3.2.1]octan-3-yl)but-2-yn-1-one], the GI50 on Ba/F3 ERBB2 YVMA stood at 8.19 nM. Further, the IC50 in experiment [1] worked out at 42.3 nM; in experiment [2], 4060 nM.
Turning to `C=CC(=O)N1CCN(c2ncc3ncnc(Nc4ccc(Oc5ccc6c(c5)ncn6C)c(C)c4)c3n2)[C@@H](C)C1` [Compound 76, 1-[(3S)-3-methyl-4-[8-({3-methyl-4-[(1-methyl-1,3-benzodiazol-5-yl)oxy]phenyl}amino)-[1,3]diazino[5,4-d]pyrimidin-2-yl]piperazin-1-yl]prop-2-en-1-one], the GI50 on Ba/F3 ERBB2 YVMA amounted to 10 nM. The IC50 is 24.5 nM in experiment [1] and 2000 nM in experiment [2].
As to `C=CC(=O)N1CCN(c2ncc3ncnc(Nc4ccc(Cc5ccc6c(c5)ncn6C)c(C)c4)c3n2)[C@@H](C)C1` [Compound 77, 1-[(3S)-3-methyl-4-[8-({3-methyl-4-[(1-methyl-1,3-benzodiazol-5-yl)methyl]phenyl}amino)-[1,3]diazino[5,4-d]pyrimidin-2-yl]piperazin-1-yl]prop-2-en-1-one], the GI50 at Ba/F3 ERBB2 YVMA worked out at 16.4 nM. The IC50 in experiment [1] was 73.4 nM; in experiment [2], 3550 nM.
The like results for `C=CC(=O)N1CCN(c2ccc3ncnc(Nc4ccc(Cc5ccc6c(c5)ncn6C)c(C)c4)c3c2F)C[C@H]1C` [Compound 78, 1-[(2R)-4-[5-fluoro-4-({3-methyl-4-[(1-methyl-1,3-benzodiazol-5-yl)methyl]phenyl}amino)quinazolin-6-yl]-2-methylpiperazin-1-yl]prop-2-en-1-one] were, in that order, 22.6 nM, 70.4 nM and 5130 nM.
The corresponding values for `C=CC(=O)N1CCN(c2ccc3ncnc(Nc4ccc(Cc5ccn6ncnc6c5)c(C)c4)c3c2F)C(C)C1` (stereo not drawn) [Compound 79, 1-(4-(4-((4-([1,2,4]triazolo[1,5-a]pyridin-7-ylmethyl)-3-methylphenyl)amino)-5-fluoroquinazolin-6-yl)-3-methylpiperazin-1-yl)prop-2-en-1-one] are above 500 nM, 1600 nM and above 10000 nM.
Take `Cc1cc(Nc2ncnc3ccc(N4CCN(C(=O)/C=C/CN(C)C)[C@H](C)C4)nc23)ccc1Oc1ccc2c(c1)ncn2C` [Compound 80, (2E)-4-(dimethylamino)-1-[(2R)-2-methyl-4-[4-({3-methyl-4-[(1-methyl-1,3-benzodiazol-5-yl)oxy]phenyl}amino)pyrido[3,2-d]pyrimidin-6-yl]piperazin-1-yl]but-2-en-1-one]: the GI50 on Ba/F3 ERBB2 YVMA was found to be 11.3 nM. Besides, the IC50 was found to be 28.8 nM in experiment [1] and 2760 nM in experiment [2].
The corresponding values for `C=CC(=O)N1CCN(c2ccc3ncnc(Nc4ccc(Cc5ccn6ncnc6c5)c(C)c4)c3c2)CC1` [Compound 81, 1-(4-(4-((4-([1,2,4]triazolo[1,5-a]pyridin-7-ylmethyl)-3-methylphenyl)amino)quinazolin-6-yl)piperazin-1-yl)prop-2-en-1-one] are 17.8 nM, 11 nM and 2360 nM.
As to `C=CC(=O)N1CCN(c2ccc3ncnc(Nc4ccc(Cc5ccc6c(c5)ncn6C)c(C)c4)c3n2)CC1` [Compound 82, 1-{4-[4-({3-methyl-4-[(1-methyl-1,3-benzodiazol-5-yl)methyl]phenyl}amino)pyrido[3,2-d]pyrimidin-6-yl]piperazin-1-yl}prop-2-en-1-one], at Ba/F3 ERBB2 YVMA, the GI50 turned out to be 93.9 nM. The IC50 turned out to be 54.1 nM in experiment [1] and 2090 nM in experiment [2].
For the compound `C=CC(=O)N1CCN(c2cc3c(Nc4ccc(Cc5ccc6c(c5)ncn6C)c(C)c4)ncnc3cn2)CC1` [Compound 83, 1-{4-[4-({3-methyl-4-[(1-methyl-1,3-benzodiazol-5-yl)methyl]phenyl}amino)pyrido[3,4-d]pyrimidin-6-yl]piperazin-1-yl}prop-2-en-1-one; formic acid], at Ba/F3 ERBB2 YVMA, the GI50 turned out to be 12.5 nM. The values for the IC50 in experiment [1] and in experiment [2] were 25.5 nM and 1390 nM, respectively.
The corresponding values for `C=CC(=O)N1CCN(c2ncc3ncnc(Nc4ccc(Cc5ccc6c(c5)ncn6C)c(C)c4)c3n2)CC1` [Compound 84, 1-{4-[8-({3-methyl-4-[(1-methyl-1,3-benzodiazol-5-yl)methyl]phenyl}amino)-[1,3]diazino[5,4-d]pyrimidin-2-yl]piperazin-1-yl}prop-2-en-1-one] are 10.7 nM, 25.2 nM and above 10000 nM.
The like results for `C=CC(=O)N1CCN(c2cc3c(Nc4ccc(Cc5ccn6ncnc6c5)c(C)c4)ncnc3cn2)[C@@H](C)C1` [Compound 85, (S)-1-(4-(4-((4-([1,2,4]triazolo[1,5-a]pyridin-7-ylmethyl)-3-methylphenyl)amino)pyrido[3,4-d]pyrimidin-6-yl)-3-methylpiperazin-1-yl)prop-2-en-1-one] were, in that order, 69.7 nM, 47.7 nM and above 10000 nM.
For the compound `C=CC(=O)N1CCN(c2cc3c(Nc4ccc(Cc5ccc6c(c5)ncn6C)c(C)c4)ncnc3cn2)[C@@H](C)C1` [Compound 86, 1-[(3S)-3-methyl-4-[4-({3-methyl-4-[(1-methyl-1,3-benzodiazol-5-yl)methyl]phenyl}amino)pyrido[3,4-d]pyrimidin-6-yl]piperazin-1-yl]prop-2-en-1-one], the GI50 on Ba/F3 ERBB2 YVMA stood at 20.5 nM. Also, the figures for the IC50 in experiment [1] and in experiment [2] were 48.4 nM and 3180 nM, respectively.
The like results for `Cc1cc(Nc2ncnc3ccc(N4CCN(C(=O)/C=C/CN(C)C)CC4)nc23)ccc1Cc1ccn2ncnc2c1` [Compound 87, (E)-1-(4-(4-((4-([1,2,4]triazolo[1,5-a]pyridin-7-ylmethyl)-3-methylphenyl)amino)pyrido[3,2-d]pyrimidin-6-yl)piperazin-1-yl)-4-(dimethylamino)but-2-en-1-one] were, in that order, 17.3 nM, 12.9 nM and 2420 nM.
The corresponding values for `C=CC(=O)N1CCN(c2ccc3ncnc(Nc4ccc(Oc5ccc6c(c5)ncn6C)c(C)c4)c3c2)CC1` [Compound 88, 1-{4-[4-({3-methyl-4-[(1-methyl-1,3-benzodiazol-5-yl)oxy]phenyl}amino)quinazolin-6-yl]piperazin-1-yl}prop-2-en-1-one] are 22 nM, 16.6 nM and 729 nM.
With `C=CC(=O)N1CCN(c2ccc3ncnc(Nc4ccc(Oc5ccc6c(c5)ncn6C)c(C)c4)c3c2)[C@@H](C)C1` [Compound 89, 1-[(3S)-3-methyl-4-[4-({3-methyl-4-[(1-methyl-1,3-benzodiazol-5-yl)oxy]phenyl}amino)quinazolin-6-yl]piperazin-1-yl]prop-2-en-1-one], on Ba/F3 ERBB2 YVMA, the GI50 is 152 nM. Further, the figures for the IC50 in experiment [1] and in experiment [2] were 19 nM and 5380 nM, respectively.
The corresponding values for `C=CC(=O)N1CCN(c2ccc3ncnc(Nc4ccc(Oc5ccn6ncnc6c5)c(C)c4)c3c2)[C@@H](C)C1` [Compound 90, (S)-1-(4-(4-((4-([1,2,4]triazolo[1,5-a]pyridin-7-yloxy)-3-methylphenyl)amino)quinazolin-6-yl)-3-methylpiperazin-1-yl)prop-2-en-1-one] are 12 nM, 14.4 nM and 3230 nM.
